Starred links: 1 amine or outer side, 2 acyl side, 3 side chain; linkers in the order of their positions; H or OH if unused. Positions of bridges follow the written chain, without caps; N, C: chain ends. Non-standard residues stand in square brackets, D forms with d. Residues, ends and D or L forms follow the SMILES beside them. *: point of attachment. hTyr(3S-OH,4S-OH,3'-OSO3H) = N[C@H](C(=O)O)[C@H](O)[C@@H](O)c1ccc(O)c(OS(=O)(=O)O)c1; Orn(4R-OH,5R-OH) = O=C([C@H](C[C@@H](O)[C@@H](O)N[*:3])N[*:1])[*:2]; Pro(3S-OH,4S-Me) = C[C@H]1CN[C@H](C(=O)O)[C@H]1O; X1 = CCCCCOc1ccc(-c2cc(-c3ccc(C(=O)*)cc3)no2)cc1; Gln(3R-OH) = NC(=O)C[C@@H](O)[C@H](N)C(=O)O; Hyp = O=C(O)[C@@H]1C[C@@H](O)CN1
Columns and labels:
[1] = Volume of distribution at steady state in analbuminemic Nagase rat plasma at 1 mg/kg, iv administered as single dose by high-performance liquid chromatography; assay type: ADME, organism-based; design: dose 1 mg/kg, route intravenous; conditions: read-out: Vdss
[2] = tested on: Rattus norvegicus; assay: Binding affinity to gamma globulin in rat plasma at 1 mg/kg, iv administered as single dose; assay type: functional
[3] = Volume of distribution at steady state in Sprague-Dawley rat plasma at 1 mg/kg, iv administered as single dose by high-performance liquid chromatography; assay type: ADME, organism-based; design: dose 1 mg/kg, route intravenous; conditions: read-out: Vdss
[4] = tested on: Rattus norvegicus; assay: Plasma protein binding in analbuminemic Nagase rat at 1 mg/kg, iv administered as single dose by high-performance liquid chromatography; assay type: ADME, organism-based; design: dose 1 mg/kg, route intravenous; conditions: in vivo
[5] = tested on: Rattus norvegicus; assay: Plasma protein binding in Sprague-Dawley rat at 1 mg/kg, iv administered as single dose by high-performance liquid chromatography; assay type: ADME, organism-based; design: dose 1 mg/kg, route intravenous; conditions: in vivo
[6] = Systemic clearance in Sprague-Dawley rat plasma at 1 mg/kg, iv administered as single dose by high-performance liquid chromatography; assay type: ADME, organism-based; design: dose 1 mg/kg, route intravenous
[7] = molecular target: Albumin (Homo sapiens, UniProt P02768); assay: Binding affinity to human serum albumin in cell-free system
Chain of Albumin (P02768 whole entry): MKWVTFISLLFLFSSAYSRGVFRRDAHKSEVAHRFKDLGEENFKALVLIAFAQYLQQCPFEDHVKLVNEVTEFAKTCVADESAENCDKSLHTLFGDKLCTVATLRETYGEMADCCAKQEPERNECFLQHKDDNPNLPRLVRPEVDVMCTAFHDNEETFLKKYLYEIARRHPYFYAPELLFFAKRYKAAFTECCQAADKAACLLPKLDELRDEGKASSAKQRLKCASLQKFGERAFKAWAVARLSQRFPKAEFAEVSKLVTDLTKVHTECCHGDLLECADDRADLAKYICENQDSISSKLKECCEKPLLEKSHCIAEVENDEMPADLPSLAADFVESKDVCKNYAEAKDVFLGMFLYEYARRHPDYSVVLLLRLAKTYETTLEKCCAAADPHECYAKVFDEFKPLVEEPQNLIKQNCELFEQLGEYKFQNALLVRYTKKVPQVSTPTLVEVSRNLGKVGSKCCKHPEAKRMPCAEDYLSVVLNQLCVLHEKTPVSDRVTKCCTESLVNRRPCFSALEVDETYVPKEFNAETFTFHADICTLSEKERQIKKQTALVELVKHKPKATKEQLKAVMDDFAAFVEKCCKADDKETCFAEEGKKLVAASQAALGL

[8] = tested on: Rattus norvegicus; assay: Binding affinity to HDL in rat plasma at 1 mg/kg, iv administered as single dose; assay type: ADME, organism-based; design: dose 1 mg/kg, route intravenous; conditions: in vivo
[9] = Systemic clearance in analbuminemic Nagase rat plasma at 1 mg/kg, iv administered as single dose by high-performance liquid chromatography; assay type: ADME, organism-based; design: dose 1 mg/kg, route intravenous

CCCCCOc1ccc(-c2cc(-c3ccc(C(=O)N[C@H]4C[C@@H](O)[C@@H](O)NC(=O)[C@@H]5[C@@H](O)[C@@H](C)CN5C(=O)[C@H]([C@H](O)CC(N)=O)NC(=O)[C@H]([C@H](O)[C@@H](O)c5ccc(O)c(OS(=O)(=O)O)c5)NC(=O)[C@@H]5C[C@@H](O)CN5C(=O)[C@H]([C@@H](C)O)NC4=O)cc3)no2)cc1 [MICAFUNGIN] (X1-[Orn(4R-OH,5R-OH)]T[Hyp][hTyr(3S-OH,4S-OH,3'-OSO3H)][Gln(3R-OH)][Pro(3S-OH,4S-Me)]; lactam 1-C)
Vd [1]: 0.52 L/kg | Activity [2]: 35.1% | Vd [3]: 0.54 L/kg | Activity [4]: 99.8% | Activity [5]: 99.7% | clearance [6]: 1.15 mL/min/kg | Activity [7]: 99.7% | Activity [8]: 97.4% | clearance [9]: 1.2 mL/min/kg
